# According to patent US9040518B2, “Chemical compounds” (GlaxoSmithKline LLC, priority 2010, dated 2015):
# Counter-ions that a name gives are not always drawn.
# Target: ileal bile acid cotransporter (iBAT) (Homo sapiens (Human), UniProt Q12908)
# Test: Human iBAT inhibition: [3H]-taurocholate uptake into HEK293 cells expressing human iBAT
# Assay type: cell-based
# Conditions: HEK293 cells transduced with human iBAT Bacmam virus, 90 minutes at ambient temperature, mean of at least 2 datapoints
# Protocol: Method for Determination of Human iBAT Inhibition:
# In preparation for measurement of bile acid uptake into cells expressing the ileal bile acid cotransporter (iBAT), HEK293 cells were cultured in DMEM/F12 supplemented with 10% FBS. Twenty four hours prior to running an experiment, cells were harvested when at a confluence of 80-90%. Cells were seeded in poly-d-lysine coated plates at 50,000 cells per well, and human iBAT Bacmam virus was added such that each well contains 3.67×10e6 pfu (73.4pfu/cell). Each assay plate was covered with Breathe Easy Seal and placed in an incubator for 24 hours to allow expression of the transporter.
# On the day of the uptake experiment, 10 mM HEPES was added to Hank's Balanced Salt Solution, and the pH was adjusted to 7.4 with TRIS (HBSSH). The assay buffer was prepared by adding […] [^3H]-taurocholate and 10 μM cold taurocholate to room temperature HBSSH. A separate washing buffer was prepared by adding 10 μM cold taurocholate to HBSSH (˜30 ml per assay plate) and placed on ice. Using 100% DMSO, 8 point, 3-fold dilution curves for each test compound was prepared starting at 200 μM. Similarly, an 8 point dose response curve was prepared of the control compound [(3R,5R)-3-butyl-3-ethyl-7,8-bis(methyloxy)-5-phenyl-2,3,4,5-tetrahydro-1,4-benzothiazepine 1,1-dioxide (Brieaddy, L. E. WO9605188, 1996)] starting at 1.8 mM. Drug plates were created by adding 3 μL of each concentration to a v-bottom 96-well plate then diluted 60-fold with 177 μL of assay buffer. Plates were removed from the incubator and allowed to cool to ambient temperature. Media was aspirated, and wells were washed once with 300 μL HBSSH. 50 μL of each dose response curve concentration was added in triplicate by column to the assay plates, reserving column 10 for control (assay buffer+1.67% DMSO) and columns 11 and 12 for the control compound. Plates were incubated at ambient temperature for 90 minutes then the plates were aspirated then washed 1× with 300 μL of wash buffer. 220 μL of Microscint 20 was added to each well, and the plates were sealed. The amount of [^3H]-taurocholate in cell lysate was quantitated using a microplate scintillation counter on the following day.
# IC50's can be generated using the formula, y=(Vmax*x^n)/(K^n+x^n).
# ileal bile acid cotransporter (iBAT), sequence (Q12908 whole entry): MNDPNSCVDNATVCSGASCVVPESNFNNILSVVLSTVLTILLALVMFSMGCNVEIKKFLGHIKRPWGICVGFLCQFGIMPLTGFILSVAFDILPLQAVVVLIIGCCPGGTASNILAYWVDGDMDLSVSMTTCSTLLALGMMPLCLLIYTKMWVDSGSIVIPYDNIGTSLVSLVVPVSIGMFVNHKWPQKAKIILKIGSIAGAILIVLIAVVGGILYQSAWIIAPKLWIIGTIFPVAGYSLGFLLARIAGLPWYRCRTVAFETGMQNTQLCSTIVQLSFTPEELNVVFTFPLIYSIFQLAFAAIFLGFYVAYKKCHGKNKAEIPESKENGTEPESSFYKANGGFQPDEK
row,Compound,IC50 [nM]
1,"CCCC[C@]1(CC)CS(=O)(=O)c2cc(CNCCP(=O)(O)OCC)c(OC)cc2[C@@H](c2ccccc2)N1 [Example 34, ethyl hydrogen [2-({[(3R,5R)-3-butyl-3-ethyl-7-(methyloxy)-1,1-dioxido-5-phenyl-2,3,4,5-tetrahydro-1,4-benzothiazepin-8-yl]methyl}amino)ethyl]phosphonate trifluoroacetate salt]",2790
2,"CCCCC1(CCCC)CS(=O)(=O)c2cc(CNCC(=O)O)c(OC)cc2C(c2ccccc2)N1 (centres unmarked) [Example 66, N-{[3,3-dibutyl-7-(methyloxy)-1,1-dioxido-5-phenyl-2,3,4,5-tetrahydro-1,4-benzothiazepin-8-yl]methyl}glycine trifluoroacetate salt]",21
3,"CCCCC1(CCCC)CS(=O)(=O)c2cc(CP(=O)(O)O)c(OC)cc2C(c2ccccc2)N1 (centres unmarked) [Example 67, {[3,3-dibutyl-7-(methyloxy)-1,1-dioxido-5-phenyl-2,3,4,5-tetrahydro-1,4-benzothiazepin-8-yl]methyl}phosphonic acid trifluoroacetate salt]",52
4,"CCCC[C@]1(CC)CS(=O)(=O)c2cc(CN(CC(=O)O)CC(=O)O)c(OC)cc2[C@@H](c2ccccc2)N1 [Example 7, 2,2′-({[(3R,5R)-3-butyl-3-ethyl-7-(methyloxy)-1,1-dioxido-5-phenyl-2,3,4,5-tetrahydro-1,4-benzothiazepin-8-yl]methyl}imino)diacetic acid hydrochloride salt]",145
5,"CCCC[C@]1(CC)CS(=O)(=O)c2cc(CCCC(=O)O)c(OC)cc2[C@@H](c2ccccc2)N1 [Example 23, 4-[(3R,5R)-3-butyl-3-ethyl-7-(methyloxy)-1,1-dioxido-5-phenyl-2,3,4,5-tetrahydro-1,4-benzothiazepin-8-yl]butanoic acid trifluoroacetate salt]",2
6,"CCCC[C@]1(CC)CS(=O)(=O)c2cc(CCC(=O)NCC(=O)O)c(OC)cc2[C@@H](c2ccccc2)N1 [Example 14, N-{3-[(3R,5R)-3-butyl-3-ethyl-7-(methyloxy)-1,1-dioxido-5-phenyl-2,3,4,5-tetrahydro-1,4-benzothiazepin-8-yl]propanoyl}glycine]",276
7,"CCCC[C@]1(CC)CS(=O)(=O)c2cc(CNC(CC(=O)O)CC(=O)O)c(OC)cc2[C@H](c2ccccc2)N1 [Example 43, 3-({[(3R,5S)-3-butyl-3-ethyl-7-(methyloxy)-1,1-dioxido-5-phenyl-2,3,4,5-tetrahydro-1,4-benzothiazepin-8-yl]methyl}amino)pentanedioic acid]",7680
8,"CCCC[C@]1(CC)CS(=O)(=O)c2cc(CCC(=O)NO)c(OC)cc2[C@@H](c2ccccc2)N1 [Example 12, 3-[(3R,5R)-3-butyl-3-ethyl-7-(methyloxy)-1,1-dioxido-5-phenyl-2,3,4,5-tetrahydro-1,4-benzothiazepin-8-yl]-N-hydroxypropanamide]",68
9,"CCCC[C@]1(CC)CS(=O)(=O)c2cc(CCCS(=O)(=O)O)c(OC)cc2[C@@H](c2ccccc2)N1 [Example 20, 3-[(3R,5R)-3-butyl-3-ethyl-7-(methyloxy)-1,1-dioxido-5-phenyl-2,3,4,5-tetrahydro-1,4-benzothiazepin-8-yl]-1-propanesulfonic acid]",4
10,"CCCC[C@]1(CC)CS(=O)(=O)c2cc(CN(CCS(=O)(=O)O)CCS(=O)(=O)O)c(OC)cc2[C@@H](c2ccccc2)N1 [Example 36, 2,2′-({[(3R,5R)-3-butyl-3-ethyl-7-(methyloxy)-1,1-dioxido-5-phenyl-2,3,4,5-tetrahydro-1,4-benzothiazepin-8-yl]methyl}imino)diethanesulfonic acid trifluoroacetate salt]",365
11,"CCCC[C@]1(CC)CS(=O)(=O)c2cc(CNCC(=O)O)c(OC)cc2[C@@H](c2ccccc2)N1 [Example 25, N-{[(3R,5R)-3-butyl-3-ethyl-7-(methyloxy)-1,1-dioxido-5-phenyl-2,3,4,5-tetrahydro-1,4-benzothiazepin-8-yl]methyl}glycine]",6
